Reference: US5821240A, “Pyrimido[5,4]-dipyrimidines, pharmaceuticals containing them, their use and processes for the preparation thereof” (Dr. Karl Thomae GmbH, priority 1996, dated 1998)

Tests used:
[1] = system: F/L-HERc cells expressing human EGF-R; test: Inhibition of EGF-dependent proliferation of F/L-HERc cells; assay type: cell-based, murine cell line; human EGF-R; details: EGF 20 ng/ml, 37° C., 48 hours
F/L-HERc cells = test: Inhibition of IL-3-dependent proliferation of F/L-HERc cells; assay type: cell-based; details: Mus musculus, murine IL-3, 37° C., 48 hours
[2] = system: human tumour cell line KB; test: Inhibition of EGF/TGF-alpha-stimulated KB cell proliferation ([3H]-thymidine incorporation); assay type: cell-based; details: TGF-alpha 10 ng/ml or EGF 20 ng/ml, serum-free, 60 hours then [3H]-thymidine 16-18 h
Procedure: KB cells (purchased from ATCC) were passaged in DMEM (BioWhittaker) in the presence of 10% FCS (Boehringer Mannheim), 50 μM beta-mercaptoethanol and standard antibiotics. The EGF-induced DNA synthesis was determined by measuring the incorporation of radioactively labelled thymidine as indicator of EGF/TGF-alpha-stimulated cell proliferation. To do this, the cells were washed twice and 1500 cells per well were plated out in a 96-well plate in 200 μl of IMDM (BioWhittaker) without serum in the presence of 50 μM beta-mercaptoethanol, standard antibiotics, TGF-alpha [10 ng/ml] or EGF [20 ng/ml] and of various concentrations of the substances according to the invention (triplicates, maximum DMSO concentration 1%, see proliferation t t with F/L-HERc cells). After 60 hours, [^3 H]-thymidine (0.1 μCi in 10 μl) was added for about 16-18 h.

| SMILES | IC50 [1] [µM] | IC50 (F/L-HERc cells) [µM] | IC50 [2] [µM] |
| --- | --- | --- | --- |
| Fc1ccc(Nc2ncnc3cnc(NC4CN5CCC4CC5)nc23)cc1Cl (racemic) [1(4), (3'RS)-4-[(3-Chloro-4-fluorophenyl)amino]-6-[(3'-quinuclidinyl)amino]pyrimido[5,4-d]pyrimidine] | 0.015 | > 10 | 0.1 to 1 |
| NCC1CCN(c2ncc3ncnc(Nc4ccc(F)c(Cl)c4)c3n2)CC1 [1(7), 4-[(3-Chloro-4-fluorophenyl)amino]-6-[4-(aminomethyl)-1-piperidinyl]pyrimido[5,4-d]pyrimidine] | 0.008 | > 1 | 0.1 to 1 |
| Nc1c(Cl)cc(Nc2ncnc3cnc(N[C@H]4CC[C@H](C(=O)O)CC4)nc23)cc1Cl [1(16), 4-[(4-Amino-3,5-dichlorophenyl)amino]-6-[(trans-4-carboxycyclohexyl)amino]pyrimido[5,4-d]pyrimidine] | 0.02 | > 1 | 0.1 to 1 |
